One may read the IC50 as the midpoint of a concentration-inhibition curve.

The values that follow come from patent US11111238B2, “Coumarin derivatives, processes for their preparation and uses thereof for the treatment of cancer” (Lead Discovery Center GmbH, priority 2017, dated 2021).

One data set has as its system NCI-H23 (lung). In words: CellTiter GLO viability assay, NCI-H23. Type of data set: cell-based. How it is done:
(§1) The CellTiter-Glo Luminescent Cell Viability Assay (Promega) is a homogeneous method of determining the number of viable cells in culture. It is based on quantification of ATP, indicating the presence of metabolically active cells.
(§2) Cells were seeded on day 1 at cell numbers that assure assay linearity and optimal signal intensity. After incubation for 3 h in humidified chambers at 37° C./5% CO2 compounds/DMSO were added at different concentrations. […] Cells treated with the compound vehicle DMSO were used as positive controls and cells treated with 10 μM Staurosporine served as negative controls. […] Thereon, mixture and assay plates were equilibrated at room temperature for 20 min. Equal volumes of the reagent-medium-mixture was added to the volume of culture medium present in each well.
(§3) The plates were mixed at ˜200 rpm for 2 minutes on an orbital shaker. The microplates were then incubated at room temperature for 10 minutes for stabilization of the luminescent signal. Following incubation the luminescence is recorded on a Victor microplate reader (Perkin Elmer) using 200 ms integration time. The data were then analyzed with Excel using the XLFIT Plugin (dose response Fit 205) for IC50-determination. As quality control the Z′-factor was calculated from 16 positive and negative control values. Only assay results showing a Z′-factor≥0.5 were used for further analysis.
On the technique in general: ATP-based viability assays read luminescence as a measure of living cells.

The subject of a further data set is CA-46 (lymphoma). Briefly: CellTiter GLO viability assay, CA-46. Type of data set: cell-based. The settings on record: Homo sapiens, CA46, 144 h, read-out: IC50 (μM) incubation time 144 h. As to the method: as §1
(§4) […] After incubation for 3 h in humidified chambers at 37° C./5% CO2 compounds/DMSO were added at different concentrations. […] Cells treated with the compound vehicle DMSO were used as positive controls and cells treated with 10 μM Staurosporine served as negative controls. […] Thereon, mixture and assay plates were equilibrated at room temperature for 20 min. Equal volumes of the reagent-medium-mixture was added to the volume of culture medium present in each well.
as §3

The test system of data set [1] is human DLD-1 colon carcinoma xenograft. The settings on record: mouse, in vivo.
Description: (§5) DLD-1 colon carcinoma cells (5×10^6 cells in 100 μL of PBS/Matrigel), isolated during exponential growth phase from in vitro cell culture, were transplanted s.c. into each female BALB/c nude mouse at day 0. Mice were kept under strictly controlled and standardized barrier conditions in IVC.
(§6) Sorafenib) (Nexavar®, which is an approved multi-kinase inhibitor/cytostatic from Bayer A G, was used as a positive control. Body weight and tumor volume (TV) were monitored two to three times per week.
(§7) Mice of groups 3, 4 and 5 were treated again at the end of the study period and blood samples were taken to generate plasma 1 h prior and 1 h post treatment. In addition, tumor and tissue samples were isolated, divided into two parts and snap frozen in liquid nitrogen. Mice of groups 1-5 were sacrificed at day 39. Gross autopsy was performed from all mice.
A further data set relates to HRT-18 (colon). In words: CellTiter GLO viability assay, HRT-18. Type of data set: cell-based. The settings on record: Homo sapiens, 144 h, read-out: IC50 (μM) incubation time 144 h. As to the method: as §1, §2, §3
The subject of a further data set is SW403 (colon). Briefly: CellTiter GLO viability assay, SW403. The settings on record: Homo sapiens, SW-403, 144 h, read-out: IC50 (μM) incubation time 144 h. In kind it is cell-based. As to the method: as §1, §4, §3
The test system of a further data set is NCI-H596 (lung). In words: CellTiter GLO viability assay, NCI-H596. The settings on record: Homo sapiens, 144 h, read-out: IC50 (μM) incubation time 144 h. Type of data set: cell-based. How it is done:
as §1, §2, §3

A further data set concerns SW948 (colon). In words: CellTiter GLO viability assay, SW948. Type of data set: cell-based. The settings on record: Homo sapiens, 144 h, read-out: IC50 (μM) incubation time 144 h. As to the method: as §1, §2, §3
The target in data set [2] is mitochondrial RNA-polymerase (POLRMT) (Mus musculus, UniProt Q8BKF1). Briefly: Homogeneous TR-FRET assay for mitochondrial transcription activity. In kind it is biochemical. The settings on record: homogeneous TR-FRET assay according to Example 4; activity class. A digest of the protocol: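 TR-FRET read-out (340 nm excitation, 665 nm emission) of a 407 bp transcript captured by Eu-streptavidin/biotin donor and ATTO647N acceptor DNA probes after EDTA stop. Transcription ran 2 h at RT with 500 μM […], mouse POLRMT/TFAM/TFB2M and LSP-plasmid template, after 10 min compound preincubation (10 μM or dilution series).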
Chain of mitochondrial RNA-polymerase (POLRMT) (Q8BKF1 42-1207): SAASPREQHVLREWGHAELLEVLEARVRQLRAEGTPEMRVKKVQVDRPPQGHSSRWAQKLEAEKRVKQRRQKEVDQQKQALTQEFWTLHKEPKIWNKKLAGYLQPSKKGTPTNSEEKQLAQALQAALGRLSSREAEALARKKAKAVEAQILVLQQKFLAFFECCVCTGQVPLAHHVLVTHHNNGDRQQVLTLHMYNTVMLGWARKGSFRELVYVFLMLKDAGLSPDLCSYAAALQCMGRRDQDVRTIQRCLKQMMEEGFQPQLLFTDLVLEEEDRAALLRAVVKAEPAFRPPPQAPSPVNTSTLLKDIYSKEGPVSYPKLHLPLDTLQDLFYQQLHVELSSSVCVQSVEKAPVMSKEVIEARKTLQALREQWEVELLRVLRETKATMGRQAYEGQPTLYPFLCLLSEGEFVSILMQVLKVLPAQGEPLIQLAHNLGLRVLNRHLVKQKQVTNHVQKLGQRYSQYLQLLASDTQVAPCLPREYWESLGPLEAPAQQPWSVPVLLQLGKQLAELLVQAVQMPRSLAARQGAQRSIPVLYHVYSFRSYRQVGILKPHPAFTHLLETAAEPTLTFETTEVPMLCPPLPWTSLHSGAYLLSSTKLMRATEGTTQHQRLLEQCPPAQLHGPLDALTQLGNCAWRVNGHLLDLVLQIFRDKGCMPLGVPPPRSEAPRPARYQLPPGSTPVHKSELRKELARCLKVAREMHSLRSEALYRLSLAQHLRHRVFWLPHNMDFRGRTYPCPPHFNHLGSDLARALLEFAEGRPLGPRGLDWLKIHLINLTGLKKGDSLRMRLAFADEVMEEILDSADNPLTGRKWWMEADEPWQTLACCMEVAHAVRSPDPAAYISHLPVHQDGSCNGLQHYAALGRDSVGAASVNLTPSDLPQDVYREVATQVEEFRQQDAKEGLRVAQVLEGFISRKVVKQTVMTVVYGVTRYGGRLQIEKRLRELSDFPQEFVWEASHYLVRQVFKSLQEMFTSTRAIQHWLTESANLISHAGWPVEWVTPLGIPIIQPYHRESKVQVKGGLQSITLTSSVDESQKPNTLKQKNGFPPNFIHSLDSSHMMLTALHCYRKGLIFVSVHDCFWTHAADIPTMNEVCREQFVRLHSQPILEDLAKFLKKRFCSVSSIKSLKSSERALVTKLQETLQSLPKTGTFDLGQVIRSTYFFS
(In general: TR-FRET usually uses a lanthanide donor and a delayed reading to cut background.)

Data set [3] relates to human DLD-1 colon carcinoma xenograft. Briefly: Therapeutic effect on human DLD-1 colon carcinoma xenograft in nude mice. (Xenograft models place foreign cells or tissue in a host animal.)
Description: as §5, §6, §7

For the compound `C[C@@H](Oc1ccc2c(-c3ccc(F)cc3Cl)cc(=O)oc2c1)C(=O)N1CCC[C@H](C(=O)O)C1` [Compound 14, (3S)-1-[(2R)-2-[4-(2-chloro-4-fluoro-phenyl)-2-oxo-chromen-7-yl]oxypropanoyl]piperidine-3-carboxylic acid], the IC50 in the data set with NCI-H23 (lung) (Homo sapiens, NCI-H23 (lung), 144 h, read-out: IC50 (μM) incubation time 144 h) is 1 to 10 µM; in the data set on CA-46 (lymphoma) it was ≤ 0.1 µM; with HRT-18 (colon), ≤ 0.1 µM; in the data set on SW403 (colon), ≤ 0.1 µM; in the data set on NCI-H596 (lung), 1 to 10 µM; with SW948 (colon), 0.1 to 1 µM. In addition, in data set [2], the IC50 was < 20 nM. Also, the “sensitivity of the cell line (in words)” value in the data set with NCI-H23 (lung) (NCl-H23) is “moderate sensitivity”. The “Autopsy at the end” value in data set [1] is “no abnormal observations”. Also, the body weight loss result in data set [1] is given as “moderate body weight loss”. Besides, in data set [1], the signs of toxicity entry is “no signs of toxicity were observed”. Further, the Tolerability result in data set [3] (DLD-1 xenograft, p.o. QD × 28 days) is “well tolerated”. Also, the “Therapeutic effect: tumor growth inhibition” value in data set [3] (all doses) is “dose-dependent tumor growth inhibition”; in [3] (lowest dose (50 mg/kg)), “minor effect”.
